# Measurements as given in ChEMBL document CHEMBL3045398, “Fungicidal activities of cyflufenamid against various plant-pathogenic fungi” (J Pestic Sci, 2006).
# Calls of active or inactive are those of the source. The rule behind the calls is not given here.
# Experiments:
# [1] = test system: Oculimacula yallundae; assay: Fungicidal activity against Oculimacula yallundae assessed as inhibition of mycelial growth measured after 3 to 20 days by agar dilution method; type: functional, organism-based
# [2] = test system: Fulvia fulva; assay: Fungicidal activity against Fulvia fulva assessed as inhibition of mycelial growth measured after 3 to 20 days by agar dilution method; type: functional, organism-based
# [3] = test system: Podosphaera aphanis; assay: Fungicidal activity against Podosphaera aphanis var. aphanis in strawberry assessed as powdery mildew disease control measured after 7 to 10 days by pot test; type: functional
# [4] = test system: Blumeria graminis f. sp. tritici; assay: Fungicidal activity against Blumeria graminis f. sp. tritici on wheat leaves assessed as rate of spore germination measured at 12.5 ppm after 6 hr (reference value: 49.8 +/- 17.3%); type: functional
# [5] = test system: Blumeria graminis f. sp. tritici; assay: Fungicidal activity against Blumeria graminis f. sp. tritici on wheat (Triticum aestivum, cv. Chihoku) assessed as powdery mildew disease control at 200 ppm measured after 5 to 10 days; type: functional
# [6] = test system: Blumeria graminis f. sp. tritici; assay: Fungicidal activity against Blumeria graminis f. sp. tritici on wheat leaves assessed as rate of appressorium formation measured at 0.2 ppm after 168 hr; type: functional
# [7] = test system: Blumeria graminis f. sp. tritici; assay: Fungicidal activity against Blumeria graminis f. sp. tritici on wheat leaves assessed as rate of appressorium formation measured at 12.5 ppm after 76 hr; type: functional
# [8] = test system: Pestalotia longiseta; assay: Fungicidal activity against Pestalotia longiseta assessed as inhibition of mycelial growth measured after 3 to 20 days by agar dilution method; type: functional, organism-based, Pestalotiopsis longiseta
# [9] = test system: Blumeria graminis f. sp. tritici; assay: Fungicidal activity against Blumeria graminis f. sp. tritici on wheat leaves assessed as rate of appressorium formation measured at 12.5 ppm after 12 hr (reference value: 22.3 +/- 10.2%); type: functional
# [10] = test system: Discula theae-sinensis; assay: Fungicidal activity against Discula theae-sinensis assessed as inhibition of mycelial growth measured after 3 to 20 days by agar dilution method; type: functional, organism-based, Sinodiscula theae-sinensis
# [11] = test system: Colletotrichum gloeosporioides; assay: Fungicidal activity against Glomerella cingulata assessed as inhibition of mycelial growth measured after 3 to 20 days by agar dilution method; type: functional, organism-based
# [12] = test system: Botryosphaeria; assay: Fungicidal activity against Botryosphaeria sp. assessed as inhibition of mycelial growth measured after 3 to 20 days by agar dilution method; type: functional, organism-based
# [13] = test system: Blumeria graminis f. sp. tritici; assay: Fungicidal activity against Blumeria graminis f. sp. tritici on wheat (Triticum aestivum, cv. Chihoku) assessed as powdery mildew disease control at 0.05 ppm measured after 5 to 10 days; type: functional
# [14] = test system: Erysiphe necator; assay: Fungicidal activity against Erysiphe necator in grape assessed as powdery mildew disease control measured after 7 to 10 days by pot test; type: functional
# [15] = test system: Blumeria graminis f. sp. tritici; assay: Fungicidal activity against Blumeria graminis f. sp. tritici on wheat leaves assessed as rate of appressorium formation measured at 12.5 ppm after 3 hr (reference value: 1.7 +/- 1.4%); type: functional
# [16] = test system: Blumeria graminis f. sp. tritici; assay: Fungicidal activity against Blumeria graminis f. sp. tritici on wheat leaves assessed as rate of appressorium formation measured at 3.1 ppm after 76 hr; type: functional
# [17] = test system: Rosellinia necatrix; assay: Fungicidal activity against Rosellinia necatrix assessed as inhibition of mycelial growth measured after 3 to 20 days by agar dilution method; type: functional, organism-based
# [18] = test system: Cercospora kikuchii; assay: Fungicidal activity against Cercospora kikuchii assessed as inhibition of mycelial growth measured after 3 to 20 days by agar dilution method; type: functional, organism-based
# [19] = test system: Fusarium graminearum; assay: Fungicidal activity against Fusarium graminearum assessed as inhibition of mycelial growth measured after 3 to 20 days by agar dilution method; type: functional, organism-based
# [20] = test system: Blumeria graminis f. sp. tritici; assay: Fungicidal activity against Blumeria graminis f. sp. tritici in wheat assessed as powdery mildew disease control measured after 7 to 10 days by pot test; type: functional
# [21] = test system: Blumeria graminis f. sp. tritici; assay: Fungicidal activity against Blumeria graminis f. sp. tritici on wheat (Triticum aestivum, cv. Chihoku) assessed as powdery mildew disease control at 12.5 ppm measured after 5 to 10 days; type: functional
# [22] = test system: Elsinoe ampelina; assay: Fungicidal activity against Elsinoe ampelina assessed as inhibition of mycelial growth measured after 3 to 20 days by agar dilution method; type: functional, organism-based
# [23] = test system: Microdochium nivale; assay: Fungicidal activity against Microdochium nivale assessed as inhibition of mycelial growth measured after 3 to 20 days by agar dilution method; type: functional, organism-based
# [24] = test system: Blumeria graminis f. sp. tritici; assay: Fungicidal activity against Blumeria graminis f. sp. tritici on wheat leaves assessed as rate of spore germination measured at 12.5 ppm after 3 hr (reference value: 22.5 +/- 7.6%); type: functional
# [25] = test system: Bipolaris oryzae; assay: Fungicidal activity against Bipolaris oryzae assessed as inhibition of mycelial growth measured after 3 to 20 days by agar dilution method; type: functional, organism-based
# [26] = test system: Trichoderma viride; assay: Fungicidal activity against Hypocrea rufa assessed as inhibition of mycelial growth measured after 3 to 20 days by agar dilution method; type: functional, organism-based
# [27] = test system: Diaporthe citri; assay: Fungicidal activity against Diaporthe citri assessed as inhibition of mycelial growth measured after 3 to 20 days by agar dilution method; type: functional, organism-based
# [28] = test system: Blumeria graminis f. sp. tritici; assay: Fungicidal activity against Blumeria graminis f. sp. tritici on wheat (Triticum aestivum, cv. Chihoku) assessed as powdery mildew disease control at 50 ppm measured after 5 to 10 days; type: functional
# [29] = test system: Blumeria graminis f. sp. tritici; assay: Fungicidal activity against Blumeria graminis f. sp. tritici on wheat (Triticum aestivum, cv. Chihoku) assessed as powdery mildew disease control at 0.2 ppm measured after 5 to 10 days; type: functional
# [30] = test system: Blumeria graminis f. sp. tritici; assay: Fungicidal activity against Blumeria graminis f. sp. tritici on wheat leaves assessed as rate of appressorium formation measured at 12.5 ppm after 6 hr (reference value: 3.5 +/- 2.5%); type: functional
# [31] = test system: Botrytis cinerea; assay: Fungicidal activity against Botryotinia fuckeliana assessed as inhibition of mycelial growth measured after 3 to 20 days by agar dilution method; type: functional, organism-based
# [32] = test system: Blumeria graminis f. sp. tritici; assay: Fungicidal activity against Blumeria graminis f. sp. tritici on wheat leaves assessed as spore formation measured at 0.8 ppm; type: functional
# [33] = test system: Monilinia fructicola; assay: Fungicidal activity against Monilinia fructicola assessed as number and shape of mitochondria measured by Transmission electron microscopy relative to untreated control; type: functional, organism-based
# [34] = test system: Blumeria graminis f. sp. tritici; assay: Fungicidal activity against Blumeria graminis f. sp. tritici on wheat leaves assessed as rate of appressorium formation measured at 3.1 ppm after 168 hr; type: functional
# [35] = test system: Monilinia fructicola; assay: Fungicidal activity against Monilinia fructicola assessed as rounded hyphae and various size vessicles measured by Transmission electron microscopy; type: functional, organism-based
# [36] = test system: Phytophthora infestans; assay: Fungicidal activity against Phytophthora infestans on tomato (Lycopersicon esculentum, cv. Regina) assessed as late blight disease control at 200 ppm measured after 5 to 10 days; type: functional
# [37] = test system: Plasmopara viticola; assay: Fungicidal activity against Plasmopara viticola on grape (Vitis vinifera, cv.Kousyu) assessed as downy mildew disease control at 200 ppm measured after 5 to 10 days; type: functional
# [38] = test system: Botrytis cinerea; assay: Fungicidal activity against Botryotinia fuckeliana on kidney bean (Phaseolus vulgaris, cv. Nagauzura) assessed as grey mold disease control at 200 ppm measured after 5 to 10 days; type: functional
# [39] = test system: Blumeria graminis f. sp. tritici; assay: Fungicidal activity against Blumeria graminis f. sp. tritici on wheat leaves assessed as spore formation measured at 12.5 ppm; type: functional
# [40] = test system: Alternaria alternata; assay: Fungicidal activity against Alternaria alternata apple pathotype assessed as inhibition of mycelial growth measured after 3 to 20 days by agar dilution method; type: functional, organism-based
# [41] = test system: Monilinia fructicola; assay: Fungicidal activity against Monilinia fructicola assessed as large septa measured by Transmission electron microscopy; type: functional, organism-based
# [42] = test system: Parastagonospora nodorum; assay: Fungicidal activity against Phaeosphaeria nodorum assessed as inhibition of mycelial growth measured after 3 to 20 days by agar dilution method; type: functional, organism-based
smiles,measurement,setting,value
O=C(Cc1ccccc1)N/C(=N\OCC1CC1)c1c(C(F)(F)F)ccc(F)c1F [CYFLUFENAMID],EC50,[1],> 100 ppm
same,EC50,[2],> 100 ppm
same,MIC,[3],< 0.8 µg/mL
same,Activity,[4],47.6%
same,Efficacy,[5],100%
same,inhibition at 0.2 ppm,[6],80.1%
same,inhibition at 12.5 ppm,[7],100%
same,EC50,[8],> 100 ppm
same,Activity,[9],28.1%
same,EC50,[10],> 100 ppm
same,EC50,[11],> 100 ppm
same,EC50,[12],0.07 ppm
same,Efficacy,[13],30%
same,MIC,[14],< 1.6 µg/mL
same,Activity,[15],0.3%
same,inhibition at 3.1 ppm,[16],99.4%
same,EC50,[17],0.7 ppm
same,EC50,[18],1 ppm
same,EC50,[19],> 100 ppm
same,MIC,[20],< 0.8 µg/mL
same,Efficacy,[21],100%
same,EC50,[22],5 ppm
same,EC50,[23],0.3 ppm
same,Activity,[24],19.8%
same,EC50,[25],> 100 ppm
same,EC50,[26],> 100 ppm
same,EC50,[27],6 ppm
same,Efficacy,[28],100%
same,Efficacy,[29],66%
same,Activity,[30],0.4%
same,EC50,[31],> 100 ppm
same,inhibition at 0.8 ppm,[32],100%
same,Activity,[33],inactive
same,inhibition at 3.1 ppm,[34],99.9%
same,Activity,[35],Active
same,Efficacy,[36],0%
same,Efficacy,[37],0%
same,Efficacy,[38],0%
same,inhibition at 12.5 ppm,[39],100%
same,EC50,[40],> 100 ppm
same,Activity,[41],Active
same,EC50,[42],> 100 ppm
